{"source": "patent US6929012B2", "about": "“Process for the isolation of a major harmful oxidant from cigarette smoke” (Council of Scientific and Industrial Research, priority 2001, dated 2005)", "system": "cs-oxidant-induced albumin oxidation", "test": "Protection of cs-oxidant-induced albumin oxidation by chemical agents", "assay_type": "biochemical, bovine", "settings": "for inhibition of BSA oxidation: concentration ranging between 500 μM and 1 mM", "experimental": "The incubation system contained 1 mg BSA and 50 μl of cs solution or its equivalent amounts obtained at different stages of purification in a final volume of 200 μl of 50 mM potassium phosphate buffer, pH 7.4. The incubation was carried out at 37° C. for 1 hour. Protein carbonyl was measured by reaction with 2,4-dinitrophenyl hydrazine (DNPH) following the method of Levine et al (Methods Enzymol. 186: 464-478, 1990) similar to that done before in our laboratory (Panda et al., Free Radic. Biol. & Med. 27: 1064-1079, 1999). […] To this washed pellet was then added 500 μl of 10 mM DNPH solution in 2M HCl and incubated at 37° C. for 1 h with occasional vortexing. Thereafter, the protein was again precipitated with 500 μl of cold 20% trichloroacetic acid solution and the pellet was first washed with 500 μl of 10% trichloroacetic acid solution followed by three successive washes with 1 ml of a mixture of ethanol: ethyl acetate (1:1, v/v). Finally, the washed precipitate was dissolved in 1 ml of 6M guanidium hydrochloride (pH 2.3) and the absorbance was measured at 390 nm using a double beam Hitachi spectrophotometer model U 3020 against a reagent blank of 2M HCl. The results were expressed as n moles of phenylhydrazones formed per milligram protein using a molar extinction coefficient of 22,000.\nThe chemical compounds/agents include, besides ascorbic acid, tartaric acid, citric acid, oxalic cid, glutathione, tea extract and individual components of tea (Table. 4).\nThe incubation system and carbonyl estimation are described in the text.", "data": [{"molecule": "O=C1O[C@H]([C@@H](O)CO)C(O)=C1O", "note": "[Ascorbic acid]", "values": [{"measurement": "% Protection", "setting": "agent 100 μM", "value": 76, "unit": "%"}, {"measurement": "% Protection", "setting": "agent 100 μM, listed as ascorbic acid", "value": "up to 76%"}]}, {"molecule": "O=C(O)CC(O)(CC(=O)O)C(=O)O", "note": "[Citric acid]", "values": [{"measurement": "% Protection", "setting": "agent 500 μM", "value": 67, "unit": "%"}, {"measurement": "% Protection", "setting": "agent 1 mM", "value": 75, "unit": "%"}, {"measurement": "inhibition of BSA oxidation", "value": "up to 75%"}]}, {"molecule": "Oc1cc(O)c2c(c1)O[C@H](c1cc(O)c(O)c(O)c1)[C@H](O)C2", "note": "[Epigallocatechin]", "values": [{"measurement": "% Protection", "setting": "agent 140 μg", "value": 95, "unit": "%"}, {"measurement": "% Protection", "setting": "agent 140 μg, listed as epigallocatechin", "value": "up to 95%"}]}, {"molecule": "N[C@@H](CCC(=O)N[C@@H](CS)C(=O)NCC(=O)O)C(=O)O", "note": "[Glutathione]", "values": [{"measurement": "% Protection", "setting": "agent 1 mM", "value": 37, "unit": "%"}, {"measurement": "% Protection", "setting": "agent 1 mM, listed as glutanthione", "value": "up to 37%"}]}, {"molecule": "N[C@@H](Cc1c[nH]cn1)C(=O)O", "note": "[Histidine]", "values": [{"measurement": "% Protection", "setting": "agent 1 mM", "value": 67, "unit": "%"}, {"measurement": "% Protection", "setting": "agent 1 mM, listed as histidine", "value": "up to 67%"}]}, {"molecule": "NCCCC[C@H](N)C(=O)O", "note": "[Lysine]", "values": [{"measurement": "% Protection", "setting": "agent 1 mM", "value": 35, "unit": "%"}, {"measurement": "% Protection", "setting": "agent 1 mM, listed as lysine", "value": "up to 35%"}]}, {"molecule": "O=C(O)C(=O)O", "note": "[Oxalic acid]", "values": [{"measurement": "% Protection", "setting": "agent 500 μM", "value": 53, "unit": "%"}, {"measurement": "% Protection", "setting": "agent 500 μM, listed as oxalic acid", "value": "up to 53%"}]}, {"molecule": "O=C(O)CCC(=O)O", "note": "[Succinic acid]", "values": [{"measurement": "% Protection", "setting": "agent 1 μM (so in the source)", "value": 60, "unit": "%"}, {"measurement": "% Protection", "setting": "agent 1 mM", "value": 60, "unit": "%"}, {"measurement": "% Protection", "setting": "agent 1 mM, listed as succinic acid", "value": "up to 60%"}]}, {"molecule": "O=C(O)C(O)C(O)C(=O)O", "note": "(centres unmarked) [Tartaric acid]", "values": [{"measurement": "% Protection", "setting": "agent 500 μM", "value": 67, "unit": "%"}, {"measurement": "% Protection", "setting": "agent 1 mM", "value": 75, "unit": "%"}, {"measurement": "inhibition of BSA oxidation", "value": "up to 75%"}]}, {"molecule": "Catechin", "values": [{"measurement": "% Protection", "setting": "agent 750 μg", "value": 54, "unit": "%"}, {"measurement": "% Protection", "setting": "agent 750 μg, listed as catechin", "value": "up to 54%"}]}]}
